These are literature values, as cited in patent US7419996B2, “Parenteral and oral formulations of benzimidazoles” (The University of Houston, priority 2003, dated 2008).

Read-outs that look alike come from different tables or passages of the source.

The series has as its system rodents.

Turning to `C[S+](C)[O-]` [DMSO, dimethylsulfoxide], the LD50 reads like this: (intravenously) 3.1 gm/kg; (orally) 7.92 gm/kg.
